According to PubChem BioAssay (NCI):
Where “and” joins values, the source holds several entries; their conditions need not be identical. Identical values can stand only once.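 Briefly, cells in 96-well plates were exposed to five compound concentrations for 48 h, and endpoints were estimated by linear interpolation. GI50 marks 50% less growth. TGI: concentration producing complete growth inhibition.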

Experiments:
Assay in all cases: inhibition of tumour cell growth, NCI panel, 48 h
786-0 renal = system: 786-0 renal
HCC-2998 colon = system: HCC-2998 colon
HCT-116 colon = system: HCT-116 colon
HCT-15 colon = system: HCT-15 colon
HOP-62 NSCLC = system: HOP-62 NSCLC
MDA-MB-231 breast = system: MDA-MB-231 breast
MDA-MB-435 = system: MDA-MB-435
MDA-N = system: MDA-N
SR leukemia = system: SR leukemia
UACC-257 melanoma = system: UACC-257 melanoma

Row | SMILES | TGI (786-0 renal) [µM] | TGI (HCC-2998 colon) [µM] | TGI (HCT-116 colon) [µM] | TGI (HCT-15 colon) [µM] | TGI (HOP-62 NSCLC) [µM] | TGI (MDA-MB-231 breast) [µM] | TGI (MDA-MB-435) [µM] | TGI (MDA-N) [µM] | TGI (SR leukemia) [µM] | TGI (UACC-257 melanoma) [µM] | GI50 (HCT-116 colon) | GI50 (HCT-15 colon) | GI50 (MDA-MB-435) | GI50 (SR leukemia)
1 | O=C(Cc1ccccc1)NCCc1ccc(O)c(O)c1 | > 100 | > 100 | > 100 | > 100 | > 100 | > 100 | 33.8 | 34.9 | 73.3 | > 100 | – | – | – | –
2 | CN1C/C(=C\c2cccs2)C2=NC(=S)NC(c3cccs3)C2C1 (centres undefined) | > 100 | > 100 | > 100 | > 100 | > 100 | > 100 | > 100 | > 100 | 54.2 | > 100 | – | – | – | –
3 | O=C(O)[C@H]1[C@@H](C2CCCCC2)O[C@@H](C2CCCCC2)O[C@H]1C(F)(F)F | 33.5 | 38.8 | > 100 | 88.1 | 50.6 | 36.2 | 35.5 | 30.7 | 46.9 | 96.1 | – | – | – | –
4 | COc1ccc2oc(=N)c(C(=O)Nc3cccc4ccccc34)cc2c1 | 28 | > 100 | > 100 | > 100 | 26.9 | 79.1 | 11.1 | 18.8 | 28.5 | > 100 | – | – | – | –
5 | O=C1Oc2ccccc2C(=O)/C1=C/N1C(=O)N/C(=C\c2ccccc2O)C1=O | > 100 | > 100 | > 100 | > 100 | > 100 | > 100 | > 100 | > 100 | > 100 | > 100 | – | – | – | –
6 | O=C1N[C@H]2c3c(Cl)sc(Cl)c3/C(=N/O)[C@H]2O1 | > 100 | > 100 | > 100 | > 100 | > 100 | > 100 | > 100 | > 100 | > 100 | > 100 | – | – | – | –
7 | O=c1[nH]c(=O)n(C2CC(O)C(CO)O2)cc1I (centres undefined) | > 100 | > 100 | > 100 | > 100 | > 100 | > 100 | > 100 | > 100 | > 100 | > 100 | – | – | – | –
8 | CCOC(=O)c1ccc(N=NN(C)C(=O)C(C)N)cc1 (centres undefined) | > 100 | > 100 | > 100 | > 100 | > 100 | > 100 | > 100 | > 100 | > 100 | > 100 | – | – | – | –
9 | CCc1nn(CN2CCN(C)CC2)c(=S)n1/N=C\c1ccc(-c2ccc([N+](=O)[O-])cc2)o1 | > 100 | > 100 | > 100 | > 100 | > 100 | > 100 | > 100 | > 100 | > 100 | > 100 | – | – | – | –
10 | COc1cc(/C=C2/SC(c3ccccc3)N(c3ccc(NC(C)=O)cc3)C2=O)cc(OC)c1OC (centres undefined) | > 100 | > 100 | > 100 | > 100 | > 100 | > 100 | > 100 | > 100 | > 100 | > 100 | – | – | – | –
11 | C=C(C)[C@@H]1CC[C@]2(C(=O)O)CC[C@]3(C)[C@H](CC[C@@H]4[C@@]5(C)CC(=O)C(C)(C)[C@@H]5CC[C@]43C)[C@@H]12 | > 25 | 12 | 8.83 | > 25 | > 25 | 14.3 | > 25 | > 25 | 12.3 | 22.3 | – | – | – | –
12 | O=c1cc(CNC2CCCC2)[nH]c(=O)[nH]1 | > 100 | > 100 | > 100 | > 100 | > 100 | > 100 | > 100 | > 100 | > 100 | > 100 | – | – | – | –
13 | O=C1c2c(F)c(F)c(F)c(F)c2SC2=NCCN12 | 19.8 | 28 | 5.24 | 7.56 | 32.6 | 22.2 | 8.59 | 11.9 | 4.45 | 21.8 | – | – | – | –
14 | O=C1NC(N/N=C\C(O)C(O)C(O)CO)=N/C1=C/c1ccccc1 (centres undefined) | > 100 | > 100 | > 100 | > 100 | > 100 | > 100 | > 100 | > 100 | > 100 | > 100 | > 100 µM and 37.5 µM | > 100 µM and 35.5 µM | > 100 µM and 49.6 µM | > 100 µM and 44.1 µM
15 | Nc1nc(Cl)cc(NCC2(O)CC(CO)C2)n1 (centres undefined) | > 100 | > 100 | > 100 | > 100 | > 100 | > 100 | > 100 | > 100 | > 100 | > 100 | – | – | – | –
16 | CC[C@@]1(O)C(=O)OCc2c1cc1n(c2=O)Cc2c-1nc1ccccc1c2/C=N\NC(=O)C(N)CC(C)C (some centres undefined) | > 100 | 6.17 | 5.37 | > 36.2 | 0.382 | > 100 | 2.8 | > 100 | < 0.0109 | 1.81 | – | – | – | –
17 | COC(=O)c1c2c(cc3c1CC1(Cc4ccccc4C1=O)C3)CCC2 (centres undefined) | > 100 | > 100 | > 100 | > 100 | > 100 | > 100 | 40.3 | 34.2 | 58.5 | > 100 | – | – | – | –
18 | CC[n+]1cnc(N)c2c(-c3ccc(Cl)cc3)cn(-c3ccc(C)cc3)c21 | 23.5 | 14.8 | 21.3 | 32.6 | 30.5 | 31.7 | 23.7 | 25 | 19.1 | 6.06 | – | – | – | –
19 | O=c1c2ccccc2oc2nc3n(c(=O)c12)CCCS3 | > 100 | > 100 | > 100 | > 100 | > 100 | > 100 | > 100 | > 100 | > 100 | > 100 | – | – | – | –
20 | C1=C\SS/C=C\SS/C=C\SS/C=C\SS/1 | > 100 | > 100 | > 100 | 55.8 | > 100 | > 100 | > 100 | > 100 | > 100 | > 100 | – | – | – | –
21 | COc1cccc2c1OC1c3ccccc3OCC1C2 (centres undefined) | > 100 | > 100 | > 100 | > 100 | > 100 | > 100 | > 100 | > 100 | > 100 | > 100 | – | – | – | –
22 | CCOc1cc2c(cc1O)/C(=N\N)C[C@@H]1[C@@H]2CC[C@]2(C)[C@@H](O)CC[C@@H]12 | > 38.5 | 12.8 | > 37.8 | 16.8 | > 100 | > 42.9 | 4.95 | 4.53 | > 100 | > 50.9 | – | – | – | –
23 | C=CCNC(=S)Nc1sc2c(c1C(=O)OCC)CC(C)CC2 (centres undefined) | > 100 | 44.1 | 66.3 | > 100 | 65.1 | 57 | > 100 | > 100 | 53.6 | 43.5 | – | – | – | –
24 | O=C1c2ccccc2C(=O)N1n1c(Cc2ccccc2)n[nH]c1=O | > 100 | > 100 | > 100 | > 100 | > 100 | > 100 | > 100 | > 100 | > 100 | > 100 | – | – | – | –
25 | CCOC(=O)c1cn(-c2ccccc2)c(=S)n2c1nc1ccccc12 | > 100 | 96.9 | > 100 | > 100 | > 100 | > 100 | > 94.8 | > 100 | 84.6 | > 100 | – | – | – | –
